# Key:
# B. subtilis (MTCC-121) = assay: In vitro antibacterial MIC, microbroth dilution; type: cell-based; settings: 24 h incubation
# S. aureus (MTCC-96) = assay: In vitro antibacterial MIC, microbroth dilution; type: cell-based; settings: 24 h incubation
# K. pneumonia (MTCC2272) = assay: In vitro antibacterial MIC, microbroth dilution; type: cell-based, K. pneumoniae; settings: 24 h incubation
# E. coli (MTCC-443) = assay: In vitro antibacterial MIC, microbroth dilution; type: cell-based; settings: 24 h incubation
# P. aeruginosa (MTCC-741) = assay: In vitro antibacterial MIC, microbroth dilution; type: cell-based; settings: 24 h incubation
# C. albicans = assay: In vitro antifungal MIC; type: cell-based; settings: 72-96 h incubation
# A. niger = assay: In vitro antifungal MIC; type: cell-based; settings: 72-96 h incubation
# A. flavus = assay: In vitro antifungal MIC; type: cell-based; settings: 72-96 h incubation
# Rhizopus sp = assay: In vitro antifungal MIC; type: cell-based; settings: 72-96 h incubation
# [1] = tested on: Mycobacterium tuberculosis H37Rv; assay: Antitubercular activity, Resazurin Assay method; type: cell-based; settings: for % Inhibition: primary screening (6.5 mg/mL); for antitubercular activity compared to PZA: M. tuberculosis H37Rv, versus PZA
# [2] = tested on: peripheral blood mononuclear cells (PBMC); settings: MTT assay
Substance,MIC B. subtilius (B. subtilis (MTCC-121)) [µg/mL],MIC S. aureus (S. aureus (MTCC-96)) [µg/mL],MIC K. pneumoniae (K. pneumonia (MTCC2272)) [µg/mL],MIC E. coli (E. coli (MTCC-443)) [µg/mL],MIC P. aeruginosa (P. aeruginosa (MTCC-741)) [µg/mL],MIC C. albicans (C. albicans) [µg/mL],MIC A. niger (A. niger) [µg/mL],MIC A .flavus (A. flavus) [µg/mL],MIC Rhizopus sp (Rhizopus sp) [µg/mL],% Inhibition ([1]; M. tb H37Rv) [%],antitubercular activity compared to PZA [1],IC50 (cytotoxicity) [2] [µg/mL],"MIC ([1]; M. tb H37Rv, neutral pH) [µg/mL]"
"3-Ethyl-2,6-diphenylpyran-4-one N-isonicotinoylhydrazone [Compound 8]",6.3,50,12.5,6.3,25,25,25,25,12.5,70,twice,486.2,
"3,5-Dimethyl-2,6-bis(p-methylphenyl)pyran-4-one N-isonicotinoylhydrazone [Compound 11]",25,12.5,25,12.5,25,50,50,25,50,76,twice,587.6,
"3,5-Dimethyl-2,6-bis(p-methoxyphenyl)−4H-pyran-4-one O-((3-(4-chlorophenyl) isoxazol-5-yl)methyl)oxime [Compound 36]",50,50,25,25,100,25,6.3,6.3,50,75,,,6.25
"3,5-Dimethyl-2,6-bis(p-methoxyphenyl)pyran-4-one N-isonicotinoylhydrazone [Compound 12]",25,50,25,50,100,25,25,12.5,50,70,twice,609.1,

# Reference: PMC10062711 (Journal of Molecular Structure, 2023)
